Results taken from a melting point compilation (Tetko et al.; mined from patent text by program, amines drawn as free bases though some values may be those of a salt).

Compound | melting point [°C]
Cc1ccc(NCc2c(F)c(F)c(C(F)(F)F)c(F)c2F)cc1C(=O)O | 84
CN[C@@H]1COc2cc(Cl)cc(-c3ccccc3C)c2O1 | > 245
COC(=O)Cc1ccc(C(C)(C)C)c([N+](=O)[O-])c1 | 92 to 95
CCOC(=O)C(C#N)=NOC(=O)Oc1cc(Cl)c(Cl)cc1Cl | 101 to 103
CCOC(=O)c1cn(C)c2c(OCC)csc2c1=O | 198 to 200
CC(C)Oc1nc2cc([N+](=O)[O-])c(-n3ccc(=O)cc3)cc2[nH]c1=NC#N | > 300
CC1CN(Cc2ccccc2)Cc2c(C=O)c(-c3ccccc3)n(Cc3ccccc3)c21 (centres undefined) | 120 to 121
CC1(C)Cc2c(F)cccc2C(c2cnc3ccccc3c2)=N1 | 97 to 100
O=C(O)c1cn(C2CC2F)c2c(F)c(F)c(F)cc2c1=O (centres undefined) | 232 to 235
COc1ccc(-c2cc(N)n[nH]2)cc1OC | 124 to 125
Cc1cc(-c2nc3cccnn3c2-c2ccnc(NC(=O)c3ccccc3)c2)ccc1F | 189 to 190
Cc1cc(-c2ccc(C(=O)N3CCN(S(=O)(=O)c4ccc5cc(Br)ccc5c4)CC3)cc2)ccn1 | 204 to 205
COc1cccc(CN2C(=NCCCn3ccnc3)c3cccc4cccc2c34)c1 | 95 to 96
CCON=C(CC)C1=C(O)CC(c2ccc(NS(C)(=O)=O)cc2)CC1=O (centres undefined) | 115 to 116
Cc1noc(NS(=O)(=O)c2cc(Cl)ccc2Cl)c1Br | 148 to 150
O=C(CCCN1C(=O)c2ccccc2C1=O)Nc1nnc(SCc2ccccc2)s1 | 128 to 131
Cc1cc(I)ccc1NC(=S)N(C)N | 160 to 161
CNC(=O)Nc1ccc(Oc2ccc3sncc3c2)c(C(F)(F)F)c1 | 138
CCc1cnn(CC(=O)O)c1OCCCc1cn(-c2ccc(C(F)(F)F)cn2)nc1C(C)C | 111 to 112
Nc1ncc(Oc2ccc(Cl)cc2)c(N[C@H]2CC[C@H](O)CC2)n1 | 154 to 155
CCSC1CCC(=O)N1 (centres undefined) | 65 to 68
CNC(=O)NC1CCCCC1 | 135 to 136
CCOC(=O)c1cn(C)c2cnc3c(F)c(F)ccc3c2c1=O | 320

Compound | melting point [°C]
CC(=O)n1cnc2c(CBr)cccc21 | 109 to 112
CCc1nn(C(=O)NS(=O)(=O)c2c(C)cccc2Cl)c(=O)n1C | 176
CCOC(=O)CC(NC(=O)c1cccc(NC(=O)c2cnc(NC(=N)N)s2)c1)c1ccccc1 (racemic) | 149
COc1ccc(CNc2ccc(C(=O)O)cc2)cc1 | 208 to 210
Brc1cccc(C2Cc3cnc(Nc4ccc(CCN5CCOCC5)cc4)nc3-c3ccccc32)c1 (centres undefined) | 86 to 88
CC1(C)CCC(C)(C)c2cc(Oc3ccc(C=O)cc3)ccc21 | 75 to 76
CCOC(=O)C1=C(C)NC(C)=C(C(=O)OCC)C1c1ccccc1/C=C/C(=O)OC(C)(C)C | 143 to 145
CCCCOc1cc(/C=C(\OCC)C(=O)O)ccc1OCCc1ccc(OS(C)(=O)=O)cc1 | 117
CC(=O)Oc1ccc(CCC2CC(=O)OC(=O)C2)cc1 | 97 to 99
CC(COc1ccc(O)c(C(N)=O)c1)NCC(O)c1ccccc1 (centres undefined) | 152 to 154
CC(C)(C)OCCCNC(=O)c1nn(C2CCCCO2)cc1NC(=O)c1ccccn1 (centres undefined) | 101 to 103
COc1ccc2c(c1)C13CCN(C)C(C2)C1(O)C=CC(=O)C3 (centres undefined) | 213 to 215
ON=C1CCCc2cc(OCCn3ccnc3)ccc21 | 177 to 179
Cc1nnc2n1-c1ccc(C#Cc3cccs3)cc1C(c1ccccc1Cl)=NC2 | 160 to 163
Cc1cc(-c2ccc3c(=O)c(C(=O)O)cn(C4CC4)c3c2C)cnc1CO | 225 to 226
CCCCCCCCCCCCCCCCCCSC(=O)Nc1ccccc1 | 85.5 to 86.5
COc1c(C)cc2c(c1C)C(C)(C)CN2C(=O)C(C)(C)C | 103 to 104
COc1nc(C)nc(NC(=O)NS(=O)(=O)c2ccccc2OC(F)F)n1 | 140 to 141
CN(C)c1ccc(C(=O)c2ccccc2)cc1NC(=O)c1ccn2c1CSC2c1cccnc1 (centres undefined) | 186
Cn1nc(COc2ccc(C=O)cc2)c2ccccc2c1=O | 168 to 170
COc1ccc(C2(O)C(c3ccccc3Cl)SC3=NCCCCN32)cc1OC (centres undefined) | 98 to 100
COc1ccc(N=Nc2ccc(O)c(C(=O)Nc3ccc4[nH]ncc4c3)c2)cc1 | 276 to 277
Cc1cc2nc3c(nc2cc1[N+](=O)[O-])SC(=C(C#N)C#N)S3 | 283 to 284

Compound | melting point [°C]
CC(C)[C@@H]1C[C@@H]([C@H](CC2CCCCC2)NC(=O)OC(C)(C)C)OC1=O | 114 to 116
CCCc1cn(CC(=O)O)nc1OCCCc1cn(-c2ccc(C(F)(F)F)cn2)nc1CCC | 138 to 139
CCCCCC/C=C(\C(=O)Nc1ccc(C(=O)O)cc1)c1ccc2c(c1)C(C)(C)CCC2(C)C | 183 to 184
OCC(O)Cc1nccn1CCCCc1ccc(OCc2coc(/C=C/c3ccc(C(F)(F)F)cc3)n2)cc1 (centres undefined) | 142 to 143
Cc1ccc(C=CC(=O)N2CCc3c([nH]c4ccccc34)C2c2ccc3c(c2)OCO3)cc1 (centres undefined) | 240
NS(=O)(=O)c1ccc(NC(=O)c2ccccc2SSc2ccccc2C(=O)O)cc1 | 276 to 278
Cn1ccnc1C(O)(c1ccccc1)c1ccc(Cl)cc1 (centres undefined) | 185 to 186
CCCc1c(OCCCS(=O)(=O)c2ccc(C(=O)CCC#N)cc2)ccc(C(C)=O)c1O | 143 to 144
CCOC(=O)c1cnc2ccccc2c1O | 266
CCCCCCCCOc1ccc(C(=O)Oc2ccc3c(c2)C(C)c2cc(O)ccc2-3)cc1 (centres undefined) | 140 to 143
Cc1cc(COc2nn(Cc3ccccc3)cc2C=O)ccc1OCc1nc(-c2ccco2)oc1C | 121 to 122
COC(CN(C)C(=O)Nc1nnc(C(C)Oc2ccc(Cl)cc2Cl)s1)OC (centres undefined) | 125 to 127
N#Cc1ccc(OCc2ccsc2)cc1F | 63 to 65
Oc1cc(-c2cccc(C(F)(F)F)c2)nc2ccnn12 | 305 to 310
Brc1ccc2c(c1)/C(=C\CN1CCCC1)c1ccccc1CO2 | 108 to 109
CN1CCN(CC2=NC(NC(=O)Nc3cccc(C#N)c3)C(=O)N(CC(=O)N(C)c3ccccc3)c3ccccc32)CC1 (centres undefined) | 152 to 155
N#Cc1ccc(C2NC(=O)NC2=O)c(SCCc2ccccc2)c1 (centres undefined) | 198
O=c1cc(CO)oc2cc(OCCCCl)ccc12 | 110 to 112
C[C@@H]1C[C@H](C)CN(C(=O)[C@@H]2Cc3ccccc3N2c2cccnn2)C1 | 159 to 160
COc1cccc(C2(c3cccc(OC)c3)CC2(C)C=O)c1 (centres undefined) | 122 to 123
CC(C)C[C@H](NC(=O)OCC1CCCCC1)C(=O)N[C@@H](C(C)C)[C@@H](O)c1c(-c2ccc(F)cc2)c1=O | 86 to 90
Cc1oc(-c2ccccc2)nc1COc1ccc(COc2nn(Cc3ccc(OCc4nc(-c5ccccc5)oc4C)cc3)cc2CO)cc1 | 157 to 158
OC1CSc2nc(SCc3ccccc3)nn21 (centres undefined) | 136 to 138
